Here are results for 3 compounds from EP3301096A1, “BIS-INDOLE DERIVATIVES FOR USE IN THE TREATMENT OF BACTERIAL INFECTIONS” (Heinrich Heine Universität Düsseldorf, priority 2016, dated 2018).

Each structure is given as a SMILES string. Where only a bound is given, the exact number is not on record here.

The subject of series [1] is human fetal lung fibroblast cell line MRC-5. The series is described as follows: Cytotoxicity, resazurin assay. The class given is cell-based. To be noted: MRC-5 cells, 48 h. On the procedure: (§1) The cytotoxicity of the compounds according to formulas (2), (3) and (4) and according to formulas (7), (11), (12) and (18) was determined in vitro using the human monocyte cell line THP-1 (Deutsche Sammlung von Mikroorganismen und Zellkulturen GmbH) and the human fetal lung fibroblast cell line MRC-5 (American Type Culture Collection).
(§2) THP-1 cells were cultured in RPMI 1640 medium containing 10% (v/v) fetal bovine serum (FBS), while MRC-5 cells were incubated in Dulbecco's Modified Eagles Medium (DMEM) containing 10% (v/v) FBS both at 37°C in a humidified atmosphere of 5% CO2. […] Cells treated with DMSO in a final concentration of 1% (v/v) served as DMSO toxicity controls. After an incubation time of 48 h, 10 µL resazurin solution (100 µg/mL) were added per well and incubated for further 3 h at 37°C in a humidified atmosphere of 5% CO2. Fluorescence was quantified using a microplate reader (excitation 540 nm, emission 590 nm). Growth was calculated relative to non-inoculated (i.e. cell-free) (0% growth) and untreated (100% growth) controls in triplicate experiments, respectively. For determination of the therapeutic index of the tested substances, the selectivity index (SI) was determined by the quotient of cytotoxic concentration and MIC. Compounds with SI ≥ 10 were characterized in further experiments.

Series [2] concerns human monocyte cell line THP-1. Put plainly: Cytotoxicity, resazurin assay. It counts as cell-based. The settings on record: THP-1 cells, 48 h. The method, then: as §1, §2
On the technique in general: Resazurin is reduced to fluorescent resorufin, in cell work by metabolically active cells.

The next series concerns E. faecalis ATCC 29212. Put plainly: MIC by broth microdilution method (CLSI). To be noted: Enterococcus faecalis, ATCC29212, 24 h.
Series [3] deals with Methicillin resistant S. aureus (MRSA; ATCC 700699). Put plainly: Resistance development during time-kill kinetics. The class given is cell-based, Staphylococcus aureus. To be noted: after 6 and 24 h of incubation, plated on agar with 5x MIC. The method, then: Additionally, the resistance rate of the cultures was determined after 6 and 24 h of incubation. For this, 20 µL of the cultures were plated on 1 mL MH agar containing the five-fold MIC of the compounds (for the compound according to formula (2) and (4): 2 µM, for the compound according to formula (3): 8 µM). After an incubation time of 24 h at 37°C, the colonies were counted. The resistance rate was determined as quotient of the number of resistant colonies on compound containing agar and the total amount of viable bacteria at the corresponding time points.
Two independent cultures C1 and C2 were tested for each attempt. Compounds were tested at 5x MIC resulting in 0.02-0.08% DMSO final concentration. In an independent experiment, medium was replaced and compounds were freshly added after 6 h, denoted "freshly added" in the Figure. 20 µL of different dilution of the cultures after either 6 or 24 h of incubation were plated out on MH agar containing either no antibiotics, which is denoted (*) or the compounds of formulas (2) and (3) at 5x MIC, respectively.

The subject of another series is E. faecium ATCC 35667. The series is described as follows: MIC by broth microdilution method (CLSI). To be noted: Enterococcus faecium, ATCC35667, 24 h.
For series [4], the system named is methicillin-sensitive Staphylococcus aureus. The series is described as follows: MIC quantified via the BacTiter-Glo assay. The class given is cell-based. To be noted: methicillin-sensitive strain; 24 h. On the procedure:
(§3) The MICs of compounds according to formulas (2), (3), (4), (7), (11), (12) and (18) were additionally quantified via the BacTiter-Glo™ assay (Promega, Madison, WI, USA). Briefly, after an incubation time of 24 h, each well was resuspended by pipetting, and 50 µL aliquots were transferred into an opaque-walled multiwell plate. Additionally, control wells containing medium without cells to determine background luminescence were prepared. 50 µL BacTiter-Glo™ reagent were added to each well. Contents were mixed and incubated for five minutes at room temperature. Luminescence was measured using a microplate reader. Growth was calculated relative to the background luminescence (0% growth) and a compound-free DMSO control (100% growth).

Series [5] deals with methicillin-resistant Staphylococcus aureus. The series is described as follows: MIC quantified via the BacTiter-Glo assay. It counts as cell-based. To be noted: methicillin-resistant strain; 24 h. The method, then:
as §3

For series [6], the system named is Staphylococcus aureus MRSA strain ATCC 700699. Put plainly: Time-kill curves in vitro (killing kinetics). It counts as cell-based. The settings on record: for bacteria amount: after 6 h at five-fold MIC, inoculum 10^6 CFU/mL; for killing effect: five-fold MIC.
A further series has as its system M. tuberculosis H37Rv. The series is described as follows: MIC determination, resazurin microplate assay. It counts as cell-based. To be noted: Mycobacterium tuberculosis, 120 h, five days, range 100-0.78 µM.
The next series has as its system S. aureus ATCC 25923. The series is described as follows: MIC by broth microdilution method (CLSI). To be noted: Staphylococcus aureus, ATCC25923, 24 h.
The next series deals with MRSA ATCC 700699. Put plainly: MIC by broth microdilution method (CLSI). To be noted: for MIC: Staphylococcus aureus, 24 h.
The test system of series [7] is VR E. faecium ATCC 700221. Put plainly: MIC by broth microdilution method (CLSI). The settings on record: Enterococcus faecium, ATCC700221, 24 h. Background: Broth dilution looks for growth in wells or tubes with falling amounts of substance.
Protocol: (§4) The compounds were tested for their antibacterial activities against the pathogenic nosocomial strains of Staphylococcus aureus, Enterococcus faecalis Enterococcus faecium, Acinetobacter baumannii. The minimal inhibitory concentration (MIC) was determined by the broth microdilution method according to the recommendations of the Clinical and Laboratory Standards Institute (CLSI) (CLSI M7-A9, 2012). For preparation of the inoculum the growth method was used. Bacterial cells were grown aerobically in Muller Hinton (MH) medium at 37°C and 180 rpm. A preculture was grown until log phase (OD600 nm ∼ 0.5) and then seeded at 5 x 10^4 bacteria/well in a total volume of 100 µL in 96 well round bottom microtiter plates and incubated with serially diluted test substances at a concentration range of 100-0.78 µM. The compounds were screened in two-fold serial dilution. Microplates were incubated aerobically at 37°C for 24 h. MICs were determined by identifying the minimum concentration of the compounds that led to complete inhibition of visual growth of the bacteria.
For another series, the system named is E. faecalis ATCC 51299. Put plainly: MIC by broth microdilution method (CLSI). To be noted: Enterococcus faecalis, ATCC51299, 24 h.
The subject of series [8] is methicillin-resistant S. aureus (MRSA) strain ATCC 700699. The series is described as follows: Frequency of spontaneous resistant mutants on compound-containing agar. It counts as cell-based, Staphylococcus aureus. To be noted: agar with 3- and 5-fold MIC, 72 h, 37°C.
The next series concerns resistant MRSA mutants. Put plainly: Level of resistance of isolated resistant mutants (dose-response). The class given is cell-based, Staphylococcus aureus.

Protocol for E. faecalis ATCC 29212: as §4
Protocol for E. faecalis ATCC 51299: as §4
Protocol for E. faecium ATCC 35667: as §4
Protocol for MRSA ATCC 700699: as §4
Protocol for S. aureus ATCC 25923: as §4

With `Clc1ccc2[nH]cc(-c3cnc(-c4c[nH]c5ccc(Cl)cc45)cn3)c2c1` [formula (2), 2,5-bis(5-chloro-1H-indole-3-yl)pyrazine], the “cytotoxic (inhibitory) concentration” value in series [1] and in series [2] was 12.5 µM in each case. In addition, the MIC in the series on E. faecalis ATCC 29212 was above 100 µM; against E. faecium ATCC 35667, above 100 µM; against M. tuberculosis H37Rv it was above 100 µM; with S. aureus ATCC 25923, above 100 µM; in the series with MRSA ATCC 700699, 0.39 µM; in [7] it was above 100 µM. The compound also yielded an MIC in the series with E. faecalis ATCC 51299 above 100 µM. For the same compound, the “level of resistance in treated cultures” value in series [3] was “no significant level of resistance was detectable”. Moreover, the “inhibition of Staphylococcus aureus (BacTiter-Glo)” value (“inhibition of Staphylococcus aureus” below) in [4] and in series [5] was “effectively inhibited” throughout. For the same compound, in [6], the bacteria amount was 10^4 CFU/mL. Further, the “viability of the culture” value in series [6] (compound freshly added to washed cells after 6 h, initial further decrease) was 10^2 CFU/mL. Also, the killing effect entry in [6] is “strong bactericidal killing effect”. Moreover, in the series with MRSA ATCC 700699 (paradoxical effect, assumed aggregation and precipitation), the “concentrations at which a decreased inhibitory effect could be observed” value was at least 3.125 µM. The “frequency of spontaneous resistant mutants” value in [8] is 5×10^-7.

Regarding `Clc1ccc2[nH]cc(-c3cnc(-c4c[nH]c5ccc(Cl)cc45)nc3)c2c1` [formula (4), 3,3'-(pyrimidine-2,5-diyl)bis(5-chloro-1H-indole)], the “cytotoxic (inhibitory) concentration” value in series [1] and in series [2] was above 12.5 µM in each case. Moreover, the MIC came to 3.12 µM in the series on E. faecalis ATCC 29212; 1.56 µM in the series with E. faecium ATCC 35667; 50 µM against M. tuberculosis H37Rv; 6.25 µM with S. aureus ATCC 25923; 0.39 µM in the series with MRSA ATCC 700699; 1.56 µM in series [7]. For the same compound, the MIC against E. faecalis ATCC 51299 was determined as 12.5 µM. Also, the “MIC for the mutants relative to the parent MRSA strain” value with resistant MRSA mutants (mutants 9-RM, 1-RM, 9-RM-5x versus MRSA WT) was 8 fold. The “resistance of clones resistant against formula (2) towards the tested compound” value in the series on resistant MRSA mutants (two tested clones (1-RM)) is on record as “showed cross-resistance”. Besides, the “inhibition of Staphylococcus aureus” value in [4] and in series [5] was “effectively inhibited” each time. Also, the bacteria amount in series [6] was < 10^1 CFU/mL. In addition, the “amount of surviving bacteria” value in series [6] (after 24 h at five-fold MIC, limit of detection 10^1) is < 10^1 CFU/mL. Moreover, in series [6], the killing effect result is “strong bactericidal killing effect”. For the same compound, the “frequency of spontaneous resistant mutants” value in series [8] is 5×10^-5.

Turning to `Brc1ccc2[nH]cc(-c3cnc(-c4c[nH]c5ccc(Br)cc45)cn3)c2c1` [formula (3), 2,5-bis(5-bromo-1H-indole-3-yl)pyrazine], the “cytotoxic (inhibitory) concentration” value in series [1] and in series [2] was 12.5 µM each time. Also, the MIC was above 100 µM in the series with E. faecalis ATCC 29212; above 100 µM against E. faecium ATCC 35667; above 100 µM against M. tuberculosis H37Rv; 1.56 µM with S. aureus ATCC 25923; 1.56 µM against MRSA ATCC 700699; above 100 µM in series [7]. Moreover, the MIC against E. faecalis ATCC 51299 was above 100 µM. In addition, in series [3], the “level of resistance in treated cultures” value is “no significant level of resistance was detectable”. Moreover, the “inhibition of Staphylococcus aureus” value in series [4] and in [5] was “effectively inhibited” in each case. Moreover, in series [6], the bacteria amount is 10^2 CFU/mL. For the same compound, in series [6], the killing effect entry was “strong bactericidal killing effect”.

For orientation: MIC means the least concentration at which growth counts as inhibited.
